From the supplement of paper PMC10307832

Assays:
Test in all cases: relative viability (nuclei count vs DMSO), 5 days (fraction); higher = more cells survive
IMD-0354 + Olaparib = compound: O=C(Nc1cc(C(F)(F)F)cc(C(F)(F)F)c1)c1cc(Cl)ccc1O [IMD-0354] + O=C(c1cc(Cc2n[nH]c(=O)c3ccccc23)ccc1F)N1CCN(C(=O)C2CC2)CC1 [Olaparib] (partner 8 µM)
In short: (§1)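 After 5 days of treatment, lung cancer cells in 1536-well plates were fixed and stained in a single step (final 0.05% Triton X-100, 1% formaldehyde, 1 ug/ml Hoechst) and their nuclei counted on 4× images. Treatment had been applied by pin tool the day after seeding as one drug alone or as a fixed anchor-drug dose with five library-drug doses (not always all listed) in √10 steps. Relative viability is the nuclei count of treated wells divided by that of vehicle wells, and values are medians of duplicate plates.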

CX-5461 + Palbociclib = compound: Cc1cnc(CNC(=O)c2c(=O)c3ccc(N4CCCN(C)CC4)nc3n3c2sc2ccccc23)cn1 [CX-5461] + CC(=O)c1c(C)c2cnc(Nc3ccc(N4CCNCC4)cn3)nc2n(C2CCCC2)c1=O [Palbociclib] (partner 0.5 µM)
In short: as §1

IMD-0354 + Palbociclib = compound: O=C(Nc1cc(C(F)(F)F)cc(C(F)(F)F)c1)c1cc(Cl)ccc1O [IMD-0354] + CC(=O)c1c(C)c2cnc(Nc3ccc(N4CCNCC4)cn3)nc2n(C2CCCC2)c1=O [Palbociclib] (partner 0.5 µM)
In short: as §1

IMD-0354 + Pictilisib = compound: O=C(Nc1cc(C(F)(F)F)cc(C(F)(F)F)c1)c1cc(Cl)ccc1O [IMD-0354] + CS(=O)(=O)N1CCN(Cc2cc3nc(-c4cccc5[nH]ncc45)nc(N4CCOCC4)c3s2)CC1 [Pictilisib] (partner 1 µM)
In short: as §1

Cell Line | relative viability (IMD-0354 + Olaparib; first compound 0.04 µM) | relative viability (IMD-0354 + Olaparib; first compound 0.1265 µM) | relative viability (IMD-0354 + Olaparib; first compound 0.4 µM) | relative viability (IMD-0354 + Olaparib; first compound 1.265 µM) | relative viability (IMD-0354 + Olaparib; first compound 4 µM) | relative viability (CX-5461 + Palbociclib; first compound 0.01 µM) | relative viability (CX-5461 + Palbociclib; first compound 0.03162 µM) | relative viability (CX-5461 + Palbociclib; first compound 0.1 µM) | relative viability (CX-5461 + Palbociclib; first compound 0.3162 µM) | relative viability (CX-5461 + Palbociclib; first compound 1 µM) | relative viability (IMD-0354 + Palbociclib; first compound 0.04 µM) | relative viability (IMD-0354 + Palbociclib; first compound 0.1265 µM) | relative viability (IMD-0354 + Palbociclib; first compound 0.4 µM) | relative viability (IMD-0354 + Palbociclib; first compound 1.265 µM) | relative viability (IMD-0354 + Palbociclib; first compound 4 µM) | relative viability (IMD-0354 + Pictilisib; first compound 0.04 µM) | relative viability (IMD-0354 + Pictilisib; first compound 0.1265 µM) | relative viability (IMD-0354 + Pictilisib; first compound 0.4 µM) | relative viability (IMD-0354 + Pictilisib; first compound 1.265 µM) | relative viability (IMD-0354 + Pictilisib; first compound 4 µM)
NCI-H358 | 0.569 | 0.543 | 0.335 | 0.14 | 0.198 | 0.135 | 0.124 | 0.135 | 0.0878 | 0.084 | 0.144 | 0.136 | 0.119 | 0.0987 | 0.101 | 0.319 | 0.31 | 0.263 | 0.241 | 0.22
NCI-H441 | 0.537 | 0.541 | 0.604 | 0.186 | 0.194 | 0.233 | 0.243 | 0.205 | 0.203 | 0.194 | 0.214 | 0.196 | 0.366 | 0.12 | 0.146 | 0.543 | 0.521 | 0.316 | 0.266 | 0.183
NCI-H460 | 0.395 | 0.322 | 0.363 | 0.0469 | 0.0473 | 0.221 | 0.0725 | 0.0509 | 0.0722 | 0.0229 | 0.147 | 0.138 | 0.206 | 0.024 | 0.04 | 0.438 | 0.48 | 0.184 | 0.0352 | 0.0702
NCI-H520 | 0.325 | 0.317 | 0.318 | 0.146 | 0.189 | 0.219 | 0.212 | 0.25 | 0.247 | 0.176 | 0.199 | 0.22 | 0.215 | 0.136 | 0.121 | 0.372 | 0.287 | 0.195 | 0.17 | 0.117
NCI-H647 | 0.67 | 0.485 | 0.292 | 0.0684 | 0.113 | 0.413 | 0.356 | 0.353 | 0.414 | 0.167 | 0.481 | 0.485 | 0.174 | 0.056 | 0.0731 | 0.626 | 0.524 | 0.184 | 0.232 | 0.0513
NCI-H650 | 0.329 | 0.355 | 0.32 | 0.211 | 0.144 | 0.319 | 0.362 | 0.334 | 0.336 | 0.323 | 0.301 | 0.283 | 0.322 | 0.232 | 0.189 | 1.09 | 0.89 | 0.597 | 0.415 | 0.239
NCI-H661 | 0.752 | 0.774 | 0.356 | 0.256 | 0.261 | 0.418 | 0.374 | 0.368 | 0.367 | 0.337 | 0.397 | 0.385 | 0.369 | 0.276 | 0.253 | 0.416 | 0.418 | 0.34 | 0.264 | 0.252
NCI-H727 | 0.574 | 0.633 | 0.617 | 0.524 | 0.318 | 0.601 | 0.601 | 0.717 | 0.65 | 0.637 | 0.502 | 0.582 | 0.667 | 0.709 | 0.455 | 0.384 | 0.368 | 0.35 | 0.237 | 0.238
